Read-outs that look alike come from different tables or passages of the source.
Assays:
primary AML specimens = experiment: Viability of primary AML specimens, Annexin V/7-AAD flow cytometry; format: cell-based, human
Experimental: (§1) The cells were isolated and processed as described. […] All drug treatments were performed in triplicate. […] Total viable cell numbers were determined using a flow cytometric apoptosis assay as described. Briefly, after 18 h of treatment, specimens were labeled with anti-CD34-PE (Becton Dickinson, San Jose, Calif.) for 20 minutes. […] The total number of events collected was 100,000. The percent viable cells was defined as AnnexinV^neg/7-AAD^neg cells on total (ungated) cells and on gates set for CD34^+ populations. • [1] Jordan, C. T., et al., The interleukin-3 receptor alpha chain is a unique marker for human acute myelogenous leukemia stem cells. Leukemia, 2000. 14(10): p. […] Lansdorp, P. M. and W. Dragowska, Long-term erythropoiesis from constant numbers of CD34+ cells in serum-free cultures initiated with highly purified progenitor cells from human bone marrow. […] Guzman, M. L., et al., Nuclear factor-kappaB is constitutively activated in primitive human acute myelogenous leukemia cells. […] 98(8): p.

[1] = tested on: primary blast crisis CML (bcCML) specimens; experiment: Viability of primary bcCML specimens, Annexin V/7-AAD; format: cell-based; details: Homo sapiens, 24 h; read-out: mean viability relative to untreated controls
PKC = details: reported; cited from earlier work
PICA = PICA (Homo sapiens, UniProt P17612); details: reported; cited from earlier work
CDK1/cyclin B = CDK1/cyclin B (Homo sapiens, UniProt P06493); details: reported; cited from earlier work
Chain of CDK1/cyclin B (P06493 whole entry, species assumed): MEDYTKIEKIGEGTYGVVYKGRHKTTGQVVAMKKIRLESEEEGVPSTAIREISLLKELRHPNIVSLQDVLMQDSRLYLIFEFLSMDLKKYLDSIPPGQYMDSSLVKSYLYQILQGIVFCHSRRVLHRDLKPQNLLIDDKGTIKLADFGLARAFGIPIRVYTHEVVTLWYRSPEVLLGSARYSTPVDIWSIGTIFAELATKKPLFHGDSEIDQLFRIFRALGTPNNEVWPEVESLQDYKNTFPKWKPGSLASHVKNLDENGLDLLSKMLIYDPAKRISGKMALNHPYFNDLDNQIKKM
Chain of CDK1/cyclin B (P14635 whole entry partner, species assumed): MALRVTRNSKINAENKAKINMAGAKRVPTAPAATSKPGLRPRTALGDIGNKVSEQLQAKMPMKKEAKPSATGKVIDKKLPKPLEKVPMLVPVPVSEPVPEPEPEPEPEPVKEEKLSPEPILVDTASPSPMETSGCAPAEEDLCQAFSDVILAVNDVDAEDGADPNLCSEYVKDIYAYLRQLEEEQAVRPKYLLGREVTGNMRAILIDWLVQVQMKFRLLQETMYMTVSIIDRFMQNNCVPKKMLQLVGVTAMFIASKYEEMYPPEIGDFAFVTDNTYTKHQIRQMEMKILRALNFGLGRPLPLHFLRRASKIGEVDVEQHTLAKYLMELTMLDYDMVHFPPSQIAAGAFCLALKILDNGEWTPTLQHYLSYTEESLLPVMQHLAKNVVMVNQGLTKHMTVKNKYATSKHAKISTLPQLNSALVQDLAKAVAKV

[2] = format: cell-based; details: human, CD34+CD38− cells gated from healthy (normal) specimens
[3] = tested on: primary AML, ALL and CLL specimens; experiment: Free thiol analysis by mBBr labeling, leukemia specimens; format: cell-based, human; details: 20 μM TDZD-8, as early as 30 minutes after exposure
Experimental: C. […] Intracellular thiol levels were assessed by flow cytometry after labeling with 50 μM monobromobimane (molecular probes).

primary CLL specimens = experiment: Viability of primary CLL specimens, Annexin V/7-AAD; format: cell-based; details: Homo sapiens, 24 h; read-out: mean viability relative to untreated controls
AML progenitor cells = experiment: Methylcellulose colony assay, AML; format: cell-based, human; details: 20 μM TDZD-8, 18 hours before plating, n=11
Experimental: Cells were then plated at 50,000 cells/ml in Methocult™ GF H4534 (1% methylcellulose in IMDM, 30% FBS, 1% BSA, 10^−4M 2-mercaptoethanol, 2 mM L-glutamine, 50 ng/ml rh stem cell factor, 10 ng/ml rh GM-CSF, 10 ng/ml rh IL-3-Stem Cell Technologies, Vancouver, B.C.) supplemented with 3 units/ml of erythropoietin and 50 ng/ml G-CSF (R&D Systems, Minneapolis, Minn.). Colonies were scored after 10-14 days of culture.

[4] = tested on: normal specimens (BM, CB, MPB); experiment: Viability of normal specimens (BM, CB, MPB), Annexin V/7-AAD; format: cell-based, human; details: normal specimens
Experimental: as §1

[5] = as above; format: cell-based, human; details: human; read-out: cell viability relative to untreated controls
Experimental: as §1

CD34+CD38− bcCML cells = format: cell-based; details: Homo sapiens, 24 h
RPS6KA3 (RSK2) = RPS6KA3 (RSK2) (Homo sapiens, UniProt P51812); experiment: Kinase assay; format: biochemical
Experimental: (§2) Kinase Assays: Single point and titration assays are performed using protocols (or essentially using protocols) know in the art for kinase activity profiling against a battery of kinase targets, including, for example, those specifically delineated herein. Such assays include, for example, those available from commercial sources, contract research laboratories, and the like.

MAP4K4 (HGK) = MAP4K4 (HGK) (Homo sapiens, UniProt O95819); experiment: Kinase assay; format: biochemical
Experimental: as §2

CSNK2A1 (CK2 alpha 1) = CSNK2A1 (CK2 alpha 1) (Homo sapiens, UniProt P68400); experiment: Kinase assay; format: biochemical
Chain of CSNK2A1 (CK2 alpha 1) (P68400 whole entry): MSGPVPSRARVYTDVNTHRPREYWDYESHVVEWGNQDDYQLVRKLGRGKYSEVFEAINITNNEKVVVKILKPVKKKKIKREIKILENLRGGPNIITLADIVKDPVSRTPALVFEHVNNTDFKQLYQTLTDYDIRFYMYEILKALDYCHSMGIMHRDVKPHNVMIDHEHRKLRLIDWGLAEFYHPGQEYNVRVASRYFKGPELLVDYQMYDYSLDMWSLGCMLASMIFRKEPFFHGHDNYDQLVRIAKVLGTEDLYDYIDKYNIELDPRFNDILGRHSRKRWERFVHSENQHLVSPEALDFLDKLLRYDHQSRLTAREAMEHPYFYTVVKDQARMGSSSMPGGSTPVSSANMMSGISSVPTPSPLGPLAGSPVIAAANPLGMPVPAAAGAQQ
Experimental: as §2

NTRK1 (TRKA) = NTRK1 (TRKA) (Homo sapiens, UniProt P04629); experiment: Kinase assay; format: biochemical
Chain of NTRK1 (TRKA) (P04629 33-796): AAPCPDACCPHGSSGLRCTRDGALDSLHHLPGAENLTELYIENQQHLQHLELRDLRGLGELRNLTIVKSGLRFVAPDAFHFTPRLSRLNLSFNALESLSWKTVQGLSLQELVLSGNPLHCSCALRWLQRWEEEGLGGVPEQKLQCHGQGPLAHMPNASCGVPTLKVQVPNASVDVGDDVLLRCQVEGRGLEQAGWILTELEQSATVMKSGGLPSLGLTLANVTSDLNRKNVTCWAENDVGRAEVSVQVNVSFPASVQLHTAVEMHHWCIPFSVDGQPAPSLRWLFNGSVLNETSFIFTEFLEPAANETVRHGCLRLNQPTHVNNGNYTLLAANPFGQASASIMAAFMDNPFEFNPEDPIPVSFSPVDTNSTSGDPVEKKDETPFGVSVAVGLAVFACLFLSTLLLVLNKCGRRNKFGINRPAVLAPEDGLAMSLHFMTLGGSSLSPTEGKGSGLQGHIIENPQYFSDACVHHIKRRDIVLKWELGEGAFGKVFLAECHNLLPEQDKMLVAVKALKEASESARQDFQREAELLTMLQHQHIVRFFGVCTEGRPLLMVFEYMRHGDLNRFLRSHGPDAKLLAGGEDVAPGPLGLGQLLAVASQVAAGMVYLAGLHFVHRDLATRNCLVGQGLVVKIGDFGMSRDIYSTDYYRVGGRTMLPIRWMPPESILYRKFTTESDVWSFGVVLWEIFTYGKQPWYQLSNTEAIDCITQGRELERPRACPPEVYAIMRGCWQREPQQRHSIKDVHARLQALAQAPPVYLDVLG
Experimental: as §2

MAPKAPK2 = MAPKAPK2 (Homo sapiens, UniProt P49137); experiment: Kinase assay; format: biochemical
Chain of MAPKAPK2 (P49137 whole entry): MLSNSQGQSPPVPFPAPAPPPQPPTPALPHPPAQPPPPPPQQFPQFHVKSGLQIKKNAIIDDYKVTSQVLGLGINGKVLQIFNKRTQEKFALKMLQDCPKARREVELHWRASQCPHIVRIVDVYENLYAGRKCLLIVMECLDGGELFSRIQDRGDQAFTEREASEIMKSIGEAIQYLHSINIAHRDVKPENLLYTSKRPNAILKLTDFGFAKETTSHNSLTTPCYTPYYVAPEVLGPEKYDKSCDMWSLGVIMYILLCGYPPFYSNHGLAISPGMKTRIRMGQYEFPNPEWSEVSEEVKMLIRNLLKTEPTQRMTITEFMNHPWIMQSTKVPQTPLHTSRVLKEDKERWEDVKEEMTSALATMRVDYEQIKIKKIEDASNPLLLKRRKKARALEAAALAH
Experimental: as §2

PRKD1 (PKC mu) = PRKD1 (PKC mu) (Homo sapiens, UniProt Q15139); experiment: Kinase assay; format: biochemical
Chain of PRKD1 (PKC mu) (Q15139 whole entry): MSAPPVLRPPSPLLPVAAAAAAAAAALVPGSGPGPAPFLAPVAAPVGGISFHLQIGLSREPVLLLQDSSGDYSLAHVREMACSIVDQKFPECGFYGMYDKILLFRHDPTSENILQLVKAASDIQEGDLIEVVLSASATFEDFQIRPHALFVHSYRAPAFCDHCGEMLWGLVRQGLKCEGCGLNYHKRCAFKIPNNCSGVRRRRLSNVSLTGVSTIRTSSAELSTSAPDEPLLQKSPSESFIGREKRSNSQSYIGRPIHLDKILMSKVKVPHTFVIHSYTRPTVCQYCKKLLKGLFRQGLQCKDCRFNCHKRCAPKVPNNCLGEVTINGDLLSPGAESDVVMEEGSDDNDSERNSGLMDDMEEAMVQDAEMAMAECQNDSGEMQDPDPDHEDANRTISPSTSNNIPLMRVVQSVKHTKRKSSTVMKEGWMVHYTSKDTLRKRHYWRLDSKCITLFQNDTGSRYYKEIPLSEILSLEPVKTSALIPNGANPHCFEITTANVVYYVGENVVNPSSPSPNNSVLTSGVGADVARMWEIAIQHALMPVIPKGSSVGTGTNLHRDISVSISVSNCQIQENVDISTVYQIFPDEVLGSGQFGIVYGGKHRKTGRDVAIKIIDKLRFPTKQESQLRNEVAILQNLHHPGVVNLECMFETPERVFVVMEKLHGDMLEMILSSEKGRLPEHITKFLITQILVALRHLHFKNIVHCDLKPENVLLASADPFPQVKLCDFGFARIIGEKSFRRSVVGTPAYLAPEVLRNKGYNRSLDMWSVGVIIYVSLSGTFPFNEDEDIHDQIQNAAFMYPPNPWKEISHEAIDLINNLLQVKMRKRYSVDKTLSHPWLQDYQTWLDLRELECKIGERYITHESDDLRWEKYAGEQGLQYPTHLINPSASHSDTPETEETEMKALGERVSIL
Experimental: as §2

MAP2K1 (MEK1) = MAP2K1 (MEK1) (Homo sapiens, UniProt Q02750); experiment: Kinase assay; format: biochemical
Chain of MAP2K1 (MEK1) (Q02750 whole entry): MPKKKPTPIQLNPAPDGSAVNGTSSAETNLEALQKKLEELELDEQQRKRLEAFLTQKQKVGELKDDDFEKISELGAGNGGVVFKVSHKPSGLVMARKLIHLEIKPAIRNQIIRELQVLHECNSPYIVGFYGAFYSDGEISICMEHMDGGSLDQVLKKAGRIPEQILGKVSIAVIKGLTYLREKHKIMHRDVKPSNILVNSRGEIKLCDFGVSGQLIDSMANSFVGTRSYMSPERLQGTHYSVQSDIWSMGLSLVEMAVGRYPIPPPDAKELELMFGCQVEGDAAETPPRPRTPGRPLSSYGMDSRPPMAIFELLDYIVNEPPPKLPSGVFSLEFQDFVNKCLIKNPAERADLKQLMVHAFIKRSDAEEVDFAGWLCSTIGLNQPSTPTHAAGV
Experimental: as §2

KDR (VEGFR2) = KDR (VEGFR2) (Homo sapiens, UniProt P35968); experiment: Kinase assay; format: biochemical
Experimental: as §2

INSR = INSR (Homo sapiens, UniProt P06213); experiment: Kinase assay; format: biochemical
Chain of INSR (P06213 28-1382): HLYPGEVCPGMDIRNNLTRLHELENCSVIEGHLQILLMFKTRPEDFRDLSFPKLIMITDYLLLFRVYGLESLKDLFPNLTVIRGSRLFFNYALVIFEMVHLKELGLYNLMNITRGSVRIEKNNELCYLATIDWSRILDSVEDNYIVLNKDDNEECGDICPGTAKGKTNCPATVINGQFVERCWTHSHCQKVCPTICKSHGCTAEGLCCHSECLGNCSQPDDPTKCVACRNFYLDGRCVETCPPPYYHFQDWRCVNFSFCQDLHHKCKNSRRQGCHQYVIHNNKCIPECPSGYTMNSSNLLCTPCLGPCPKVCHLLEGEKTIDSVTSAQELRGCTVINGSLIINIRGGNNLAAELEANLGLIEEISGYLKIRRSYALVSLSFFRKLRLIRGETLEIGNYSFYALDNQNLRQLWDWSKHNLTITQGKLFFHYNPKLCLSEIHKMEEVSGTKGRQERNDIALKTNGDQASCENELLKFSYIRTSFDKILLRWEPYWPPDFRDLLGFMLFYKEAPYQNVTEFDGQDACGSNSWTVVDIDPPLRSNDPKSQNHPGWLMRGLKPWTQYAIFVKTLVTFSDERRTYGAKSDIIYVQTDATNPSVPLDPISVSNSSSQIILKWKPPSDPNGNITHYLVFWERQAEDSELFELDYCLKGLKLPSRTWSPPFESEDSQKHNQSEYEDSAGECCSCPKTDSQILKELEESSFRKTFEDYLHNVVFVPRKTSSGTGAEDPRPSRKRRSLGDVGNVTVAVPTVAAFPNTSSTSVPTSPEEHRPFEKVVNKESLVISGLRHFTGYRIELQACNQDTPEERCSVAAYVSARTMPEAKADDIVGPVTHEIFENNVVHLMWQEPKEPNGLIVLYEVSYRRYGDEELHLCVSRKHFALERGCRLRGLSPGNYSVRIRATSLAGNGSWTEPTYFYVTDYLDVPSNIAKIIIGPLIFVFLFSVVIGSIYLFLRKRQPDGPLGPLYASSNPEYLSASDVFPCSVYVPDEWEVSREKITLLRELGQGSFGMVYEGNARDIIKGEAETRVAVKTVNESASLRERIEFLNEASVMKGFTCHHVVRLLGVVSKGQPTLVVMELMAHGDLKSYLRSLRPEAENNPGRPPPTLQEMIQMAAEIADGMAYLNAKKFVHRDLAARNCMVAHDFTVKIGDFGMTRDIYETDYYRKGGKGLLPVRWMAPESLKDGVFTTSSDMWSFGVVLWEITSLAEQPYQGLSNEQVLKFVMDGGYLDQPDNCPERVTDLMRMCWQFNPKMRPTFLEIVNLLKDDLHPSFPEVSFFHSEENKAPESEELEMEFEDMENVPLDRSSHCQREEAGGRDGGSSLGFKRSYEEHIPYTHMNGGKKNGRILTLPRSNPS
Experimental: as §2

PRKCN (PKD3) = PRKCN (PKD3) (Homo sapiens, UniProt O94806); experiment: Kinase assay; format: biochemical
Experimental: as §2

BTK = BTK (Homo sapiens, UniProt Q06187); experiment: Kinase assay; format: biochemical
Experimental: as §2

EGFR (ErbB1) = EGFR (ErbB1) (Homo sapiens, UniProt P00533); experiment: Kinase assay; format: biochemical
Experimental: as §2

CK-II = CK-II (Homo sapiens, UniProt P68400); details: reported; cited from earlier work
Chain of CK-II (P68400 whole entry): as the sequence (P68400 whole entry) above

SMILES: Cn1sc(=O)n(Cc2ccccc2)c1=O [TDZD-8, 4-benzyl-2-methyl-1,2,4-thiadiazolidine-3,5-dione]
- viability at 20 µM (primary AML specimens; Homo sapiens, 24 h, read-out: mean viability relative to untreated controls): 15%
- treatment time that may also be effective (primary AML specimens; additional preliminary data, not shown): ≤ 5 min
- mean time to achieve ≧50% cell death (primary AML specimens; bulk leukemia blast populations, 17 primary specimens): 2 h
- Rapid kinetics (primary AML specimens; cell death kinetics): Yes
- time within which most toxicity is evident (primary AML specimens; leukemia cells): 1 to 6 h
- Cytotoxic AML (primary AML specimens; primary AML specimens): Yes
- time of TDZD-8 exposure at which cell death was frequently evident (primary AML specimens; primary AML, bcCML, ALL and CLL specimens): ≤ 2 h
- viability (primary AML specimens; three of 17 specimens, within 30 minutes): below 30%
- viability at 20 µM [1]: 21.6%
- IC50 (PKC): > 100 µM
- IC50 (PICA): > 100 µM
- IC50 (CDK1/cyclin B): > 100 µM
- viability at 24 h, 20 μM [2]: 80.2%
- mBBr labeling (free thiol groups) [3]: reduction in mBBr labeling is evident
- viability at 20 µM (primary CLL specimens): 7.2%
- CFU, normalized to untreated controls (AML progenitor cells): 7.3%
- Cytotoxic Normal [4]: No
- viability at 24 h, 20 μM [5]: 79.5%
- viability at 20 µM (CD34+CD38− bcCML cells): 2.8%
- inhibition at 20 µM (RPS6KA3 (RSK2)): 101%
- inhibition at 20 µM (MAP4K4 (HGK)): 99%
- inhibition at 20 µM (CSNK2A1 (CK2 alpha 1)): 27%
- inhibition at 20 µM (NTRK1 (TRKA)): -9%
- inhibition at 20 µM (MAPKAPK2): 99%
- inhibition at 20 µM (PRKD1 (PKC mu)): 97%
- inhibition at 20 µM (MAP2K1 (MEK1)): 80%
- inhibition at 20 µM (KDR (VEGFR2)): 100%
- inhibition at 20 µM (INSR): 9%
- inhibition at 20 µM (PRKCN (PKD3)): 94%
- inhibition at 20 µM (BTK): 72%
- inhibition at 20 µM (EGFR (ErbB1)): 1%
- IC50 (CK-II): > 100 µM

— patent US9180118B2, “Thiadiazolidinone derivatives” (University of Rochester, priority 2006, dated 2015)
